Assay results published in ChEMBL document CHEMBL3727359, “Methods and compositions for treating or preventing pruritis” (2012).
pIC50: −log10 of the molar value.

Key:
[1] = target: T1, Mas-related G-protein coupled receptor member X1 (Homo sapiens, UniProt Q96LB2); assay: Antagonist activity at MrgX1 in mouse or rat DRG neurons assessed as intracellular Ca2+ level by FLIPR assay; type: functional, cell-based
[2] = target: T1, Mas-related G-protein coupled receptor member X1; assay: Antagonist activity at MrgX1 in mouse or rat DRG neurons assessed as action potential by whole-cell patch clamp method; type: functional

T1 sequence (Q96LB2 whole entry, looked up): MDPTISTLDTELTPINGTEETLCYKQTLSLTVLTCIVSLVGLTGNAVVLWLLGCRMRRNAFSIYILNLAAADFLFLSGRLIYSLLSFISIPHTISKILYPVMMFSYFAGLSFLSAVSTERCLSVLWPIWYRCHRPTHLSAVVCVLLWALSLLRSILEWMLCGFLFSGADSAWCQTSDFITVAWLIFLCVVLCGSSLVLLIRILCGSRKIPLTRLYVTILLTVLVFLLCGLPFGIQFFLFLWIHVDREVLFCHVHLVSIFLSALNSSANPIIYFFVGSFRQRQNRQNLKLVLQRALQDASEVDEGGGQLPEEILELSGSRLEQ

**Q.** How did the pIC50 [1] turn out when `N#Cc1ccc(COC2C3CCN(CC3)C2C(c2ccccc2)c2ccccc2)cc1` (configuration not stated) was run?
**A.** 6.20

**Q.** What about the pIC50 [2] of the same compound?
**A.** 5.25
